Source: patent US11167014B2, “Solid glp-1 derivative compositions for oral administration” (Novo Nordisk A/S, priority 2017, dated 2021)
“And” between values parts separate entries of the source, which are not always exact repeats. Identical values can stand only once.

What was measured:
[1] = system: NCI-N87 cell monolayers; assay: Assay (I): epithelial cell monolayer permeability (transepithelial transport, Papp) and TEER, NCI-N87
Description: N87 cells were seeded onto tissue culture treated polyester filters in 12-well Corning Transwell plates (1.13 cm^2, 0.4 μm pore size) at a density of 10^5 cells/well.
(§1) Cell monolayers were grown in an atmosphere of 5% CO2-95% O2 at 37° C., replacing growth media every other day. The experiment was performed on day 14-16 after cell seeding.
The amount of test compound transported from the donor chamber (apical side) to the receiver chamber (basolateral side) was measured as described in [1] for Caco-2 monolayers and in [2] for NCl-N87 cell monolayers, in an atmosphere of 5% CO2-95% O2 at 37° C. on a shaking plate (30 rpm). Before the experiment, cell monolayers were equilibrated for 60 min with transport buffer on both sides of the epithelium. The transport buffer consisted of Hank's balanced saline solution containing 0.1% Ovalbumin (w/v), 0.005% Tween20 (w/w) and 10 mM HEPES, adjusted to pH 7.4. The transport of [^3H]mannitol (PerkinElmer), was measured to verify the integrity of the epithelium.
(§2) Translocation of a given compound across cell layers is expressed as the apparent permeability (Papp), given by:
(§3) [formula] where dQ/dt is the steady-state flux across the cell layer (pmol/s), A is the surface area (1.12 cm^2), and C0 is the initial sample concentration.
Before and after the experiment the transepithelial electrical resistance (TEER) of the cell monolayers was monitored. After experiments, cells were washed twice with buffer and replenished with medium for 24 h TEER recovery to ensure that the cell monolayers were viable and the enhancer effects were transient. The TEER was measured with EVOM™ Epithelial Voltohmmeter connected to Chopsticks.

[2] = system: Caco-2 cell monolayers; assay: Assay (I): epithelial cell monolayer permeability (transepithelial transport, Papp) and TEER, Caco-2
Description: Caco-2 cells were seeded in culturing flasks and passaged in Dulbecco's Modified Eagle' (DMEM) medium supplemented with 10% fetal bovine serum, 1% penicillin/streptomycin (100 U/ml and 100 μg/ml, respectively), 1% L-glutamine and 1% nonessential amino acids. Caco-2 cells were seeded onto tissue culture treated polycarbonate filters in 12-well Corning Transwell plates (1.13 cm^2, 0.4 μm pore size) at a density of 10^5 cells/well.
as §1
Before the experiment, cell monolayers were equilibrated for 60 min with transport buffer on both sides of the epithelium. The transport buffer consisted of Hank's balanced saline solution containing 0.1% Ovalbumin (w/v), 0.005% Tween20 (w/w) and 10 mM HEPES, adjusted to pH 7.4. The transport of [^3H]mannitol (PerkinElmer), was measured to verify the integrity of the epithelium.
as §2, §3
Before and after the experiment the transepithelial electrical resistance (TEER) of the cell monolayers was monitored. After experiments, cells were washed twice with buffer and replenished with medium for 24 h TEER recovery to ensure that the cell monolayers were viable and the enhancer effects were transient. The TEER was measured with EVOM™ Epithelial Voltohmmeter connected to Chopsticks. For Caco-2 monolayers the starting TEER was typically around 1000 Ω·cm^2 and for N87 monolayers it was around 1600 Ω·cm^2.

[3] = NCI-N87, experiment of Table 3 (semaglutide)
[4] = NCI-N87, experiment of Table 4 (FD4)
[5] = Caco-2, experiment of Table 1 (semaglutide)
[6] = Caco-2, experiment of Table 2 (Compound B)
[7] = Caco-2, experiment of Table 5 (FD4)
[8] = Caco-2, experiments of Tables 9-10 (semaglutide, FD4)

| SMILES | transient decrease in cell monolayer TEER down to % of starting values [1, 3] | transient decrease in cell monolayer TEER down to % of starting values [1, 4] | transient decrease in cell monolayer TEER down to % of starting values [2, 5] | transient decrease in cell monolayer TEER down to % of starting values [2, 6] | transient decrease in cell monolayer TEER down to % of starting values [2, 7] | transient decrease in cell monolayer TEER down to % of starting values [2, 8] | dapagliflozin concentration for which non-recovering TEER was observed ([1]; NCI-N87, 24 h in fresh medium) [mM] | effect alone on Compound B permeability ([2]; 0.5-2.0 mM dapagliflozin, Caco-2 cell monolayers) | dapagliflozin concentration for which non-recovering TEER was observed ([2]; Caco-2, 24 h in fresh medium) |
| --- | --- | --- | --- | --- | --- | --- | --- | --- | --- |
| O=C(O)CCCCCCCNC(=O)c1ccccc1O [SNAC, sodium N-(8-(2-hydroxybenzoyl)amino)caprylate] | ~20 % of starting values | ~25 % of starting values | ~25 % of starting values | ~25 % of starting values | ~35 % of starting values | ~35 % of starting values |  |  |  |
| OC[C@H]1O[C@@H](c2ccc(Cl)c(Cc3ccc(O[C@H]4CCOC4)cc3)c2)[C@H](O)[C@@H](O)[C@@H]1O [empagliflozin] |  |  |  |  |  | ~35 % of starting values |  |  |  |
| CCOc1ccc(Cc2cc([C@@H]3O[C@H](CO)[C@@H](O)[C@H](O)[C@H]3O)ccc2Cl)cc1 [dapagliflozin] | ~20 % of starting values | ~25 % of starting values | ~25 % of starting values | ~25 % of starting values | ~35 % of starting values |  | > 2.6 | negligible effect | > 2.7 mM and 3 mM |
